From US10344330B2, “Glatiramer acetate response biomarker mRNA potency assay” (Mylan Inc., priority 2013, dated 2019)

How the values were obtained:
Format in all cases: cell-based, mouse
[1] = system: mIL-5 mRNA in primary LN cells; assay: mIL-5 mRNA by real-time PCR in stimulated LN cells of immunized (SJL/J×BALB/C)F1 mice (Example I); details: for mIL-5 mRNA Level: Experiment 1, GA-immunized (SJL/J×BALB/C)F1; for mIL-5 mRNA: not normalized to a reference gene
Protocol: For each of the three experiments summarized in Table 1, female (SJL/J×BALB/C) F1 hybrid (Jackson Laboratory) mice were immunized by footpad injection with either 250 μg GMA (Mylan Pharmaceuticals, Inc.) and CFA (Sigma Aldrich), or Mannitol and CFA (as a negative control). The GA solution was diluted to 5 mg/mL with Dulbecco's Phosphate-buffered saline. A dose solution was then prepared by mixing the diluted GA solution (5 mg/mL) and CFA (1:1) until well-emulsified. Each mouse received a total injection volume of 0.1 mL (250 μg GA). Animals were immunized on Day 0. Immunized animals were sacrificed via cervical dislocation on Day 10 following immunization. […] The LN were washed 3 times with −5 mL of RPMI medium, and the LN cells isolated by pressing the LN with a syringe plunger. […] The cell suspension was centrifuged at about 200×g for 10 minutes at about 4° C. and re-suspended in ice cold enriched DCCM-1 medium. The LN cells (2.5×10^6 cells/cm^2) were plated in the wells of a 48-well tissue culture plate and stimulated with GA or controls.
Expression of cytokine mRNA was quantitatively analyzed using a Real-Time PCR system (7500, Applied Biosystems).
(DCCM1 from Beit Haemek Ltd.; Cat. No. 05 010 1A). There was no MBP treatment for the 2-hour groups.
Group 1B animals were female (SJL/J×BALB/C) F1 hybrid (Jackson Laboratory) mice immunized by footpad injection with either 250 μg GA and CFA, or Mannitol and CFA (as a negative control). A dose solution was prepared by mixing a diluted GA solution (5 mg/mL) and CFA (1:1). Each mouse received a total injection volume of […] (250 μg GA). Animals were immunized on Day 0. Immunized animals were sacrificed via cervical dislocation on Day 10 following immunization. Lymph nodes from immunized mice were removed and isolated. LN cells (2.5×10^6 cells/cm^2) were plated in the wells of a 48-well tissue culture plate for stimulation with GA.
Expression of cytokine mRNA was quantitatively analyzed 4 and 6 hours after using a Real-Time PCR system (7500, Applied Biosystems).

[2] = system: IL-2 secreted by LN cells; assay: IL-2 secretion by GA-stimulated LN cells, MSD 9-plex ELISA (Example II); details: LN cells from each of the three mouse strains
IFN-γ mRNA in LN cells = assay: IFN-γ mRNA by real-time PCR in LN cells of GA-immunized CD-1, BALB/cByJ, SJL/J mice (Example III); details: 6 hours
Protocol: (§1) On Day 0, mice were immunized with 250 μg GA (GMA, Mylan Pharmaceuticals, Inc.) and CFA. The GA solution (20 mg/mL) was diluted with Dulbecco's Phosphate-Buffered Saline to 5 mg/mL. The dosing formulation consisted of equal volumes of the diluted GA solution (5 mg/mL) and CFA solution, mixed until well-emulsified. Animals were weighed and allocated to groups. Animals were dosed by injection into four footpads. The injection volume per animal was 0.1 mL (about 10 μL into each front footpad, and 40 μL into each hind footpad).
(§2) Immunized animals were euthanized by cervical dislocation on Day 10 post-immunization. Lymph node cells were isolated from animals and treated with Myelin Basic Protein (MBP, a negative control), Concanavalin A (ConA, a positive control) or GA as shown in Table 16. Lymph nodes in the axillary and popliteal regions were removed aseptically in a purifier clean bench. […] The LN were then washed 3 times with −5 mL of RPMI medium, and isolated by pressing the LN with a syringe plunger. […] The cell suspension was centrifuged at about 200×g for 10 minutes at about 4° C. and re-suspended in ice cold enriched DCCM-1 medium. Cells were seeded in 96-well tissue culture plates.
(§3) LN cells isolated from GA-immunized animals were stimulated with GA (GMA, Mylan Pharmaceuticals, Inc.) at concentrations as indicated in Tables 16 and 17. A positive control was prepared by treating LN cells with 2.5 μg/mL concavalin A (ConA, a non-specific T cell stimulant). Myelin basic protein (MBP, 10 μg/mL) and enriched DCCM-1 medium served as negative controls. The cells from all groups each were stimulated with the same GA lot. Each reaction was set up in triplicate.
(§4) After incubation at about 37° C. in a humidified CO2 incubator for 6 hours, the cells were lysed for total RNA isolation. Total RNA was isolated from treated LN cells using SV 96 Total RNA Isolation System according to the manufacturer's protocol (Promega, Cat. #Z3500). Cells were washed once with Phosphate Buffered Saline (PBS) and lysed in RNA lysis buffer. The lysate was transferred to wells of the SV 96 binding plate. Samples were washed with RNA wash solution and treated with DNase. Total RNA was eluted with nuclease-free water from the binding plate.
(§5) After the reverse transcriptase reaction was completed, cDNA samples were used directly for real-time PCR to measure the response biomarker mRNA levels produced by the stimulated cells. […] All probes for target genes contained FAM dye, and probes for the internal control contained VIC®/MGB dye. Samples will be prepared and run in 96-well plates using a Real-Time PCR system (7500, Life Technologies). This system allows direct detection of PCR-product formation by measuring the increase in fluorescent emission continuously during the PCR reaction. A relative quantitation method was used to analyze changes in mouse IL-2, IL-4, IL-5, IL-10, IL-13, IFN-γ and TNF-α expression in GA-treated samples relative to the untreated control (enriched DCCM-1 treated) samples. The Real-Time PCR program was:
(§6) The levels of mouse cytokine amplicons (IL-2, IL-4, IL-5, IL-10, IL-13, mIFN-γ and TNF-α) were normalized to internal probe levels (GAPDH) from the same samples. The following equations were used to calculate the relative increase in response to GA stimulation compared to the control sample: ΔCT=CT_target−CT_reference ΔΔCT=−ΔCT_Treated−CT_VC

IL-5 mRNA in LN cells = assay: IL-5 mRNA by real-time PCR in LN cells of GA-immunized CD-1, BALB/cByJ, SJL/J mice (Example III); details: 6 hours
Protocol: as §1, §2, §3, §4, §5, §6

IL-10 mRNA in LN cells = assay: IL-10 mRNA by real-time PCR in LN cells of GA-immunized CD-1, BALB/cByJ, SJL/J mice (Example III); details: 6 hours
Protocol: as §1, §2, §3, §4, §5, §6

[3] = Group 1C: CD-1, GA-immunized, stimulation 0.3 μg/mL
[4] = Group 1C: CD-1, GA-immunized, stimulation 1 μg/mL
[5] = Group 1C: CD-1, GA-immunized, stimulation 3 μg/mL
[6] = Group 1C: CD-1, GA-immunized, stimulation 10 μg/mL
[7] = Group 2C: BALB/cByJ, GA-immunized, stimulation 0.3 μg/mL
[8] = Group 2C: BALB/cByJ, GA-immunized, stimulation 1 μg/mL
[9] = Group 2C: BALB/cByJ, GA-immunized, stimulation 3 μg/mL
[10] = Group 2C: BALB/cByJ, GA-immunized, stimulation 10 μg/mL
[11] = Group 3C: SJL/J, GA-immunized, stimulation 0.3 μg/mL
[12] = Group 3C: SJL/J, GA-immunized, stimulation 1 μg/mL
[13] = Group 3C: SJL/J, GA-immunized, stimulation 3 μg/mL
[14] = Group 3C: SJL/J, GA-immunized, stimulation 10 μg/mL

L-glutamic acid polymer with L-alanine, L-lysine and L-tyrosine, acetate (salt) [GA]
mIL-5 mRNA Level ([1]; 2 hour post stimulation, GA 10, ConA 2.5 μg/mL): 1.6 fold change vs control
mIL-5 mRNA Level ([1]; 4 hour post stimulation, GA 10, MBP 10, ConA 2.5 μg/mL): 4.8 fold change vs control
mIL-5 mRNA Level ([1]; 6 hour post stimulation, GA 10, MBP 10, ConA 2.5 μg/mL): 5.1 fold change vs control
mIL-5 mRNA Level ([1]; 24 hour post stimulation, GA 10, MBP 10, ConA 2.5 μg/mL): 1.9 fold change vs control
mIL-5 mRNA ([1]; Group 1B (GA + CFA), 4 hours post-stimulation, GA 10, MBP 10, ConA 2.5 μg/mL): 4.0 fold change vs control
mIL-5 mRNA ([1]; Group 1B (GA + CFA), 6 hours post-stimulation, GA 10, MBP 10, ConA 2.5 μg/mL): 4.3 fold change vs control
mIL-5 mRNA level increase vs DCCM-1-stimulated control ([1]; Group 1B, 4 and 6 hours (text summary of Table 10)): at least 4 fold
mIL-5 mRNA ([1]; Group 2B (Mannitol + CFA), 4 hours post-stimulation, GA 10, MBP 10, ConA 2.5 μg/mL): 1.0 fold change vs control
mIL-5 mRNA ([1]; Group 2B (Mannitol + CFA), 6 hours post-stimulation, GA 10, MBP 10, ConA 2.5 μg/mL): 1.2 fold change vs control
IL-2 secretion, dose response to GA (in words) [2]: dose-dependent manner
IFN-γ mRNA Expression (IFN-γ mRNA in LN cells; [3]): 1.6 fold change vs control
IFN-γ mRNA Expression (IFN-γ mRNA in LN cells; [4]): 2.8 fold change vs control
IFN-γ mRNA Expression (IFN-γ mRNA in LN cells; [5]): 4.3 fold change vs control
IFN-γ mRNA Expression (IFN-γ mRNA in LN cells; [6]): 3.1 fold change vs control
IFN-γ mRNA Expression (IFN-γ mRNA in LN cells; [7]): 1.2 fold change vs control
IFN-γ mRNA Expression (IFN-γ mRNA in LN cells; [8]): 1.7 fold change vs control
IFN-γ mRNA Expression (IFN-γ mRNA in LN cells; [9]): 2.8 fold change vs control
IFN-γ mRNA Expression (IFN-γ mRNA in LN cells; [10]): 2.2 fold change vs control
IFN-γ mRNA Expression (IFN-γ mRNA in LN cells; [11]): 0.9 fold change vs control
IFN-γ mRNA Expression (IFN-γ mRNA in LN cells; [12]): 1.7 fold change vs control
IFN-γ mRNA Expression (IFN-γ mRNA in LN cells; [13]): 2.5 fold change vs control
IFN-γ mRNA Expression (IFN-γ mRNA in LN cells; [14]): 2.2 fold change vs control
IL-5 mRNA Expression (IL-5 mRNA in LN cells; [3]): 1.0 fold change vs control
IL-5 mRNA Expression (IL-5 mRNA in LN cells; [4]): 1.8 fold change vs control
IL-5 mRNA Expression (IL-5 mRNA in LN cells; [5]): 3.2 fold change vs control
IL-5 mRNA Expression (IL-5 mRNA in LN cells; [6]): 5.4 fold change vs control
IL-5 mRNA Expression (IL-5 mRNA in LN cells; [7]): 0.5 fold change vs control
IL-5 mRNA Expression (IL-5 mRNA in LN cells; [8]): 1.6 fold change vs control
IL-5 mRNA Expression (IL-5 mRNA in LN cells; [9]): 2.3 fold change vs control
IL-5 mRNA Expression (IL-5 mRNA in LN cells; [10]): 3.5 fold change vs control
IL-5 mRNA Expression (IL-5 mRNA in LN cells; [11]): 0.6 fold change vs control
IL-5 mRNA Expression (IL-5 mRNA in LN cells; [12]): 2.1 fold change vs control
IL-5 mRNA Expression (IL-5 mRNA in LN cells; [13]): 5.1 fold change vs control
IL-5 mRNA Expression (IL-5 mRNA in LN cells; [14]): 4.3 fold change vs control
IL-10 mRNA Expression (IL-10 mRNA in LN cells; [3]): 0.7 fold change vs control
IL-10 mRNA Expression (IL-10 mRNA in LN cells; [4]): 0.8 fold change vs control
IL-10 mRNA Expression (IL-10 mRNA in LN cells; [5]): 0.9 fold change vs control
IL-10 mRNA Expression (IL-10 mRNA in LN cells; [6]): 0.9 fold change vs control
IL-10 mRNA Expression (IL-10 mRNA in LN cells; [7]): 0.7 fold change vs control
IL-10 mRNA Expression (IL-10 mRNA in LN cells; [8]): 1.0 fold change vs control
IL-10 mRNA Expression (IL-10 mRNA in LN cells; [9]): 1.3 fold change vs control
IL-10 mRNA Expression (IL-10 mRNA in LN cells; [10]): 1.3 fold change vs control
IL-10 mRNA Expression (IL-10 mRNA in LN cells; [11]): 0.5 fold change vs control
IL-10 mRNA Expression (IL-10 mRNA in LN cells; [12]): 0.6 fold change vs control
IL-10 mRNA Expression (IL-10 mRNA in LN cells; [13]): 0.5 fold change vs control
IL-10 mRNA Expression (IL-10 mRNA in LN cells; [14]): 0.8 fold change vs control
